The target of assay [1] is dihydrodipicolinate reductase (DHPR) (Escherichia coli, UniProt P04036). Put plainly: DHPR kinetic assay, spectrophotometric oxidation of NADPH at 340 nm. Format: biochemical. The procedure:
For DHPR analysis, the compounds were screened using a kinetic protocol that spectrophotometrically evaluates oxidation of NADPH.
Stock solutions of each of the reagents were prepared in the following concentrations. Dilutions of the stock solutions were prepared prior to running the assay in the concentrations indicated below. DHPR was diluted in 10 mM HEPES at a pH of 7.4. DHPS (dihydrodipicolinate synthase) was not diluted and was stored in eppindorf tubes.
The L-ASA (L-aspartate semialdehyde) solution was prepared in the following manner. […] stock solution of ASA was prepared. 100 μl of the ASA stock solution was mixed with 150 μl of concentrated NaHCO3 and 375 μl of H2O. For use in the assay, 28.8 mM L-ASA was equal to 625 μl of the solution. The L-ASA stock Aft solution was kept at a temperature of −20° C. After dilution, the pH of the 28.8 mM solution was checked and maintained between 1 and 2.
The DHPS reaction was monitored at 340 nm prior to and after addition of the inhibitor to detect background reaction with the inhibitor. The solution for background detection was a 945 μl solution containing 0.1 HEPES (pH 7.8), 1 mM pyruvate, 6 μM NADPH, 40 μM L-ASA, and 7 μl of 1 mg/ml DHPS at 25° C. in the volumes provided above. The sample solution was then mixed and incubated for 10 minutes. Next, 500 nM solutions of the inhibitors and enough DMSO to provide a final DMSO concentration of 5% of the total assay volume were added. The solution was mixed and incubated for an additional 6 minutes.
In DHPR samples, 5 μl of the diluted DHPR enzyme were added. The sample was mixed for 20 seconds and then the reaction was run for 10 minutes. After a 50 second lag, the samples were read in a Cary spectrophotometer at 340 nm. Reading of the samples was continued until 300 seconds. Cuvette #1 contained the control reaction (no inhibitor), and cuvette #2 contained the positive control reaction in which Cibacron Blue at 2.58 μM was substituted for inhibitor to yield 70 to 80% inhibition. The substrate was kept at a level at least 10 times the Km. The final concentration of L-ASA was about 1 mM.

Assay [2] concerns the target inosine-5′-monophosphate dehydrogenase (IMPDH). Put plainly: IMPDH kinetic assay, spectrophotometric reduction of NAD+ at 340 nm. Format: biochemical. The settings on record: Example 13 oxidoreductase panel (FIG. 7). The procedure: For IMPDH analysis, the compounds were screened using a kinetic protocol that spectrophotometrically evaluates reduction of NAD+.
(§1) Stock solutions of each of the reagents were prepared in the following concentrations. Dilutions of the stock solutions were prepared prior to running the assay in the concentrations indicated below.
The IMPDH reaction was monitored at 340 nm prior to and after addition of the inhibitor to detect background reaction with the inhibitor. Solutions of 100 μl of the inhibitors in DMSO were prepared to provide a final DMSO concentration of 5% of the total assay volume. These solutions were incubated for 6 minutes at 37° C. in a 992 μl of a solution containing 0.1 M Tris-HCl, pH 8.0, 0.25 M KCl, 0.3% glycerol, 30 μM NAD+, and 600 μM IMP (inosine monophosphate). The reaction was then initiated with 8 μl of IMPDH (0.75 μg/ml). After the enzyme was added, the solution was mixed for 20 seconds, and the reaction was run for 10 minutes. After a 50 second lag, the samples were read in a Cary spectrophotometer at 340 nm. Reading of the samples was continued until 300 seconds. Cuvette #1 contained the control reaction (no inhibitor), and cuvette #2 contained the positive control reaction in which Cibacron Blue was substituted for inhibitor. The substrate was kept at a level at least 10 times the Km.

Assay [3] deals with glyceraldehyde-3-phosphate dehydrogenase (GAPDH) (Escherichia coli, UniProt P0A9B2). Kind of assay: GAPDH kinetic assay, spectrophotometric reduction of NAD+ at 340 nm. Format: biochemical, E. coli. As for the experimental part: For GAPDH analysis, the compounds were screened using a kinetic protocol that spectrophotometrically evaluates reduction of NAD+.
as §1
The GAPDH reaction was monitored at 340 nm prior to and after addition of the inhibitor to detect background reaction with the inhibitor. Solutions of 100 μl of the inhibitors incubated for 6 minutes at 25° C. in a 990 μl of a solution containing 125 mM triethanolamine, pH 7.5, 145 μM glyceraldehyde 3-phosphate (GAP), 0.211 mM NAD, 5 mM sodium arsenate, and 3 mM β-metcaptoethanol (2-BME). The reaction was then initiated with 10 gl of E. coli GAPDH (1:200 dilution of 1.0 mg/ml). After the enzyme was added, the solution was mixed for 20 seconds, and the reaction was run for 10 minutes. After a 50 second lag, the samples were read in a Cary spectrophotometer at 340 nm. Reading of the samples was continued until 300 seconds. The final concentration of DMSO in a cuvette was about 5% of the total assay volume. Cuvette #1 contained the control reaction (no inhibitor).
GAP for use in this experiment was deprotected from the diethyl acetal in the following manner. Water was boiled in recrystallizing dish. […]

Where two headings read alike, the source gives them in different places.

dihydrodipicolinate reductase (DHPR), sequence (P04036 whole entry): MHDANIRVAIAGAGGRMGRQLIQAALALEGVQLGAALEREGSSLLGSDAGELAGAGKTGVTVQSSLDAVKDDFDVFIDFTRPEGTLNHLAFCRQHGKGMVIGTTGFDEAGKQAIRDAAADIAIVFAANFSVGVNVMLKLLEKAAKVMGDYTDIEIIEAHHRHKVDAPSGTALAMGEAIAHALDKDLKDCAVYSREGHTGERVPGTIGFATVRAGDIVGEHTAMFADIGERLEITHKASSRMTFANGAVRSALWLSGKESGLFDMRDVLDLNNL
glyceraldehyde-3-phosphate dehydrogenase (GAPDH), sequence (P0A9B2 whole entry): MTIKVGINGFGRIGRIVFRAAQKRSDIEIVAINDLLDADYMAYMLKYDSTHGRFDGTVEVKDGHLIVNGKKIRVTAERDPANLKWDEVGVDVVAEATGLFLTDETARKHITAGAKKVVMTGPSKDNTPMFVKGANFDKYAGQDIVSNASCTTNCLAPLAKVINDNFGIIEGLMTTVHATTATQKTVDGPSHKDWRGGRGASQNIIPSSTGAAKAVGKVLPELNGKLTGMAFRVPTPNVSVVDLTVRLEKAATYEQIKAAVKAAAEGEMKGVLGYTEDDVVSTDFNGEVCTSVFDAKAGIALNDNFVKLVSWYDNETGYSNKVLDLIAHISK

Usually IC50 stands for the concentration that inhibits the measured activity by half. With `O=C(O)c1ccc(-c2ccc(-c3nc4ccccc4[nH]3)o2)cc1` [compound 6b, 4-[5-(1H-benzoimidazol-2-yl)-furan-2-yl] benzoic acid], the IC50 in assay [1] (Example 13 oxidoreductase panel (FIG. 7), read-out: IC50 for DHPR) is over 48 µM; in assay [1] (Example 14, common ligand mimics (FIG. 8), read-out: IC50 for DHPR), 32.6 µM; in assay [2] it was 22 µM; in assay [3] (Example 13 oxidoreductase panel (FIG. 7), read-out: IC50 for GAPDH) it was over 60 µM.

As for `O=C(O)c1ccc(-c2ccc(-c3nc4cc([N+](=O)[O-])ccc4[nH]3)o2)cc1` [compound 6d, 4-[5-(5-nitro-1H-benzoimidazol-2-yl)-furan-2-yl]-benzoic acid], the IC50 in assay [1] (IC50 for DHPR, Example 13 oxidoreductase panel (FIG. 7)) is over 75 µM; in assay [1] (IC50 for DHPR, Example 14, common ligand mimics (FIG. 8)), over 75 µM; in assay [2] it was 15.8 µM; in assay [3] it was over 150 µM.

For the origin of these results see patent US20030104473A1, “Common ligand mimics: benzimidazoles” (priority 2001, published 2003).
